How the values were obtained:
[1] = tested on: HepG2 cells; assay: HepG2 cytotoxicity; assay type: cell-based, human; conditions: Homo sapiens, HepG2, 72 h, 3 days exposure, CellTiter-Glo
Protocol: HepG2 cells were used to measure eukaryotic cytotoxicity. Viability of HepG2 was measured using CellTiter-Glo reagent (Promega) after 3 days of exposure to compounds. […] Staurosporine controls (maximum inhibition) and a staurosporine dose response were included on every plate.

[2] = in vitro; conditions: human; for Papp A→B at 2 h, 10 µM / Papp B→A at 2 h, 10 µM / efflux ratio at 2 h, 10 µM: Caco-2
Protocol: (§1) Permeability was measured across Caco-2 cells cultured in a Millipore 96-well Caco-2 plate. For apical to basolateral (A→B) permeability, 10 μM compound was added to the apical (A) side and amount of permeation was determined on the basolateral (B) side; for basolateral to apical (B→A) permeability, the compound was added to the B side and the amount of permeation was determine on the A side. Time points were taken at 2 h.
(§2) Table S2. Permeability. Permeability was measured using Caco-2 cells after 1 and 2 hours incubation with compound. (A→B) is Apical to Basolateral; (B→A) is Basolateral to Apical. Data is expressed as permeability (10-6 cm s-1). dQ/dt is rate of permeation, C0 is initial concentration […]
(§3) Article Duration direction value replicate replicate mean recovery

[3] = tested on: Caco-2 cells; assay: Caco-2 permeability; conditions: for recovery: human, 10 μM
Protocol: as §1, §2, §3

[4] = Microsomal metabolic stability; conditions: human; for half-life at 1 µM: liver microsomes
Protocol: as §1
Table S3. Metabolic stability. Metabolic stability was measured using human liver microsomes. […]

[5] = biological target: T1, CYP2B6 (Homo sapiens, UniProt P20813); assay: Cytochrome P450 inhibition
T1 sequence (P20813 1-491): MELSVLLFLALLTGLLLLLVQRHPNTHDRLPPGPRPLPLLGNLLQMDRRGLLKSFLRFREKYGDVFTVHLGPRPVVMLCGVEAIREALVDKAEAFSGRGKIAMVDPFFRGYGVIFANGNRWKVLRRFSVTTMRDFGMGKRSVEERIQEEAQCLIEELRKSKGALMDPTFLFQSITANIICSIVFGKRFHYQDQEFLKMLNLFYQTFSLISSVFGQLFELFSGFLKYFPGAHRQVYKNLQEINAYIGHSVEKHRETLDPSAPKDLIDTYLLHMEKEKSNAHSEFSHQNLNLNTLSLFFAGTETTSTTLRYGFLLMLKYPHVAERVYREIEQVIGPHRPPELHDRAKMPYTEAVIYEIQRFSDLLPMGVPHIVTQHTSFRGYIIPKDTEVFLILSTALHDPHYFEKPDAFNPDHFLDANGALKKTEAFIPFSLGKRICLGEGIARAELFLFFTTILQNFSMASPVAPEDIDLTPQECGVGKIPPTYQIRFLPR
Protocol: (§4) Table S4. Inhibition of cytochrome P450s.
(§5) Compounds were tested for inhibition of P450s using the enzyme substrate pairs and conditions noted. IC50s (µM) were calculated. Control P450 inhibitors were included for each isoform.
(§6) For each compound, the analytical method was developed as follows. Analyte signal was optimized for each compound by ESI positive or negative ionization mode. An MS2 scan or an SIM scan was used to optimize fragmenter voltage and a product ion analysis was used to identify the best fragment for analysis. The collision energy was optimized using a product ion or MRM scan. An ionization ranking was assigned indicating the compound’s ease of ionization. Samples […]
(§7) 1200 HPLC and a CTC PAL chilled autosampler, all controlled by MassHunter software (Agilent).
(§8) After separation on a C18 reverse phase HPLC column (Agilent Zorbax StableBond 3.5µm, 2.1 x 30 mm) using an acetonitrile -water gradient system, peaks were analyzed by mass spectrometry (MS) using ESI ionization in MRM mode.
(§9) (1 picture or pasted object on this page, not shown here)
(§10) Serial dilutions of a 10 mM stock solution were prepared in acetonitrile:DMSO (9:1). The final DMSO concentration was < 0.2%. Compounds were incubated with human liver microsomes in the presence of 2 mM NADPH in 100 mM potassium phosphate (pH 7.4) containing 5 mM magnesium chloride and a probe substrate, in a 200 µl assay final volume in duplicate. The probe substrate concentrations including bupropion (CYP2B6), amodiaquine (CYP2C8), tolbutamide (CYP2C9), mephenytoin (CYP2C19), dextromethorphan (CYP2D6) and midazolam/testosterone […]
(§11) After incubation at 37 °C, reactions were terminated by addition of methanol containing internal standard (propranolol) for analytical quantification. The quenched samples were kept on ice for 10 min and centrifuged at 4 °C for 10 min. The supernatant was removed and the probe substrate metabolite was analyzed by LC-MS/MS (Agilent Technologies Triple Quad LC/MS). A decrease in the formation of the metabolite compared to vehicle control

[6] = biological target: CYP2C19 (Homo sapiens, UniProt P33261); assay: biochemical
Sequence of CYP2C19 (P33261 whole entry): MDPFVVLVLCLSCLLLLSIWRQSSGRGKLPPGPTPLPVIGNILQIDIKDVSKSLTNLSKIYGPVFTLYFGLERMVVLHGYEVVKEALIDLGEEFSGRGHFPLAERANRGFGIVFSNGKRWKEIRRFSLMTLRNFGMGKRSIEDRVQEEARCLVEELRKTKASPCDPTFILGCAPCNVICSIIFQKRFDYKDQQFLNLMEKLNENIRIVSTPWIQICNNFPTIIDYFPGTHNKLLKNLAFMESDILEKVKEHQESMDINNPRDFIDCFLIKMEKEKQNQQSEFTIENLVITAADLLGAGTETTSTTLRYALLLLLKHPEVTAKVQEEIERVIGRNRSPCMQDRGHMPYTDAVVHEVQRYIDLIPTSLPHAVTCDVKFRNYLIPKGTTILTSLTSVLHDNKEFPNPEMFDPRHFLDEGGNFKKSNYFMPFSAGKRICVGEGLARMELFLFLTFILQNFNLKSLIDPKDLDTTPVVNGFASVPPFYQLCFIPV
Protocol: as §4, §5, §6, §7, §8, §9, §10, §11

[7] = biological target: T2, CYP2C8 (Homo sapiens, UniProt P10632); assay: biochemical
T2 sequence (P10632 1-490): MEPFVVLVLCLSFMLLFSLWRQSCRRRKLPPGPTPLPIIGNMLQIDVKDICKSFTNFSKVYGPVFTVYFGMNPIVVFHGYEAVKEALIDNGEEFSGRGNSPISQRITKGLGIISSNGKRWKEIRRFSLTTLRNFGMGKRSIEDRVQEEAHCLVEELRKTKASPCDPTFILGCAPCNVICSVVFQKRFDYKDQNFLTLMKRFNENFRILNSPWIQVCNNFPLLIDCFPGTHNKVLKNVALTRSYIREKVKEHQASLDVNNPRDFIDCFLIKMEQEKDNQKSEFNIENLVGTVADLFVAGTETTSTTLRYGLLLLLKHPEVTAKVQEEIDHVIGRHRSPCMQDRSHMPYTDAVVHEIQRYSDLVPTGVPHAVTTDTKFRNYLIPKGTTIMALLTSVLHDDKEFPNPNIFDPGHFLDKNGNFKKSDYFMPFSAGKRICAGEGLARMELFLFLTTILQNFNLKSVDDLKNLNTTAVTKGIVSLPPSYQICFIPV
Protocol: as §4, §5, §6, §7, §8, §9, §10, §11

[8] = biological target: CYP2C9 (Homo sapiens, UniProt P11712); assay: biochemical
Sequence of CYP2C9 (P11712 whole entry): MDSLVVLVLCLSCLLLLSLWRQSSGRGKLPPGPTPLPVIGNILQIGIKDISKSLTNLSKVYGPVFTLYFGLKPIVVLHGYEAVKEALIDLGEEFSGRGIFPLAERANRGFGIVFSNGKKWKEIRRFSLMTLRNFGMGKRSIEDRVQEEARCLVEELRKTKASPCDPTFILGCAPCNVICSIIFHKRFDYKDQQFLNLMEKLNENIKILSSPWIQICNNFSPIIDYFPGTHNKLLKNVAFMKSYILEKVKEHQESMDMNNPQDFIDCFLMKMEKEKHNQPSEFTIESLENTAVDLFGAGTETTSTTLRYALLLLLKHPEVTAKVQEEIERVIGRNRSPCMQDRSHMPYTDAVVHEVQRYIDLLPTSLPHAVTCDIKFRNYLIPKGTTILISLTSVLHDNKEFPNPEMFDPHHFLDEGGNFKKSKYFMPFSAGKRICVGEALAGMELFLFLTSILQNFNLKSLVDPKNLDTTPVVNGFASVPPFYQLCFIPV
Protocol: as §4
(§12) Compounds were tested for inhibition of P450s using the enzyme substrate pairs and conditions noted. IC50s (µM) were calculated. Control P450 inhibitors were included for each isoform. […]
as §10, §11

[9] = biological target: CYP2D6 (Homo sapiens, UniProt P10635); assay: biochemical
Sequence of CYP2D6 (P10635 whole entry): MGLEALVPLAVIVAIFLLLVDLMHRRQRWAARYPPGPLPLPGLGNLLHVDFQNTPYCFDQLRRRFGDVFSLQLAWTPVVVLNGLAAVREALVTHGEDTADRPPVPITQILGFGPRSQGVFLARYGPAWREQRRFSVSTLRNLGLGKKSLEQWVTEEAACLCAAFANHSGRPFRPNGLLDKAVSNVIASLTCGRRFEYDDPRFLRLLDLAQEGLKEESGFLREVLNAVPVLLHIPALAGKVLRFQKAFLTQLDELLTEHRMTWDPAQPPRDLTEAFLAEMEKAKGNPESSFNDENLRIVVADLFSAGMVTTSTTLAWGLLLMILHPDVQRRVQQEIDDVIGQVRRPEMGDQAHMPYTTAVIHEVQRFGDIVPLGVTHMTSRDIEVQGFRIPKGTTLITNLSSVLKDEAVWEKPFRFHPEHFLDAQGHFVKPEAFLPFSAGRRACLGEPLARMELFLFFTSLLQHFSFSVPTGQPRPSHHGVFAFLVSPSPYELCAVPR
Protocol: as §4, §12, §7, §8, §10, §11

| Structure (SMILES) | IC50 [1] [µM] | Papp A→B at 2 h, 10 µM [2] [×10⁻⁶ cm/s] | Papp B→A at 2 h, 10 µM [2] [×10⁻⁶ cm/s] | efflux ratio at 2 h, 10 µM [2] | dQ/dt (rate of permeation), mean ([3]; A→B, assay duration 1 hr) | dQ/dt (rate of permeation), mean ([3]; A→B, assay duration 2 hr) | dQ/dt (rate of permeation), mean ([3]; B→A, assay duration 1 hr) | dQ/dt (rate of permeation), mean ([3]; B→A, assay duration 2 hr) | half-life at 1 µM ([4]; pH 7.4) [min] | microsomal CLint at 1 µM ([4]; microsomes, pH 7.4) [µL/min/mg] | IC50 [5] [µM] | IC50 [6] [µM] | IC50 [7] [µM] | IC50 [8] [µM] | IC50 [9] [µM] | other results |
| --- | --- | --- | --- | --- | --- | --- | --- | --- | --- | --- | --- | --- | --- | --- | --- | --- |
| CCCCNC(=S)Nc1nc(C)co1 [Molecule 21, 1-butyl-3-(4-methyloxazol-2-yl)thiourea] | 42 ± 12 | 21 | 19 | 0.89 | 4.2E-04 | 3.0E-04 | 3.8E-04 | 2.8E-04 | 13 | 179 | > 20 | > 20 | > 20 | > 20 | > 20 | recovery at 1 h, 10 μM ([2]; Caco-2, recovery): 59%; recovery at 2 h, 10 μM ([2]; Caco-2, recovery): 56%; recovery ([3]; Caco-2, 1 h): 77%; recovery ([3]; Caco-2, 2 h): 67% |
| CCCCNC(=S)Nc1nc2ccccc2s1 [Molecule 1, 1-(benzo[d]thiazol-2-yl)-3-butylthiourea] | 26 ± 12 | 1.4 | 2.5 | 1.7 | 9.7E-06 | 2.1E-05 | 2.4E-05 | 3.8E-05 | 24 | 96 | > 20 | 4.6 | > 20 | > 20 | > 20 | Percent remaining %REavg ([4]; microsomes, 5 min, 1 µM, pH 7.4): 98.1%; remaining at 5 min, 1 µM ([4]; microsomes, pH 7.4, Percent remaining %REavg): 96.6% |
